Assay results taken from PubChem BioAssay (NCI).
Where “and” joins values, the source holds several entries; their conditions need not be identical. Identical values can stand only once.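 Cells were grown in 96-well plates and exposed to each compound for 48 hours at five concentrations; endpoints were interpolated linearly between bracketing concentrations, or set to the highest concentration if not reached. Abbreviation: GI50, concentration required for 50% inhibition of growth. At the TGI there is no net growth.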

Columns and labels:
Test in all cases: inhibition of tumour cell growth, NCI panel, 48 h
[1] = tested on: DLD-1 colon
[2] = tested on: PC-3 prostate
[3] = tested on: MDA-N
[4] = tested on: T-47D breast
[5] = tested on: KM20L2 colon
[6] = tested on: BT-549 breast
[7] = tested on: MDA-MB-435
[8] = tested on: XF 498 CNS
[9] = tested on: RXF-631 renal

Row | Compound | TGI [1] | GI50 [2] | TGI [2] | TGI [3] | TGI [4] | GI50 [5] | TGI [5] | TGI [6] | TGI [7] | TGI [8] [µM] | TGI [9] [µM] | GI50 [4] [nM] | GI50 [6] [nM] | GI50 [7] [µM]
1 | O=c1c(Cl)c(Cl)cnn1-c1ccccc1 | 2.84 µM and 5.22 µM | 5420 nM and 1770 nM | 12 µM and 3.23 µM | 6.77 µM and 3.65 µM | 16.4 µM and 5.04 µM | 0.655 µM and 6.44 µM | 24.5 µM and 15.7 µM | 3.12 µM and 3.19 µM | 3.58 µM and 3.73 µM | 5.47 |  |  |  | 
2 | O=c1[nH]c(=O)n(C2CC(O)C(CO)O2)cc1C#Cc1c(F)c(F)c(F)c(F)c1F (stereo not drawn) | > 100 µM |  |  |  |  |  | > 100 µM |  |  |  |  |  |  | 
3 | COC(=O)C(CC(=O)c1cc2c(cc1I)OCO2)Cc1cc(OC)c(OC)c(OC)c1I (stereo not drawn) | > 100 µM |  |  |  |  |  | > 100 µM |  |  | > 100 |  |  |  | 
4 | COC(=O)c1c(OC)cccc1C(=O)O |  |  |  |  |  |  | > 100 µM |  |  |  | > 100 |  |  | 
5 | COc1cccc(-c2nn(-c3ccccc3)cc2-c2ccnc(NCCCNS(=O)(=O)c3cccc(F)c3)c2)c1 |  | 2970 nM | > 100 µM |  | 5.27 µM |  |  | > 100 µM | 58.8 µM |  |  | 1540 | 2760 | 3.68
6 | Cc1cccc(C(C)(C)C)c1NC(=O)C(=O)Cc1nc2ccccc2s1 | > 100 µM |  |  |  |  |  | > 100 µM |  |  |  | > 100 |  |  | 
7 | O=C(O)Cc1c[nH]c2ccc(F)cc12 |  |  | > 100 µM | > 100 µM | > 100 µM |  |  | > 100 µM | > 100 µM |  |  |  |  | 
8 | O=C1c2ccccc2-c2c1c1cc3c(cc1c(=O)n2CCCCl)OCO3 |  | 42700 nM | > 100 µM |  | > 100 µM |  |  | > 100 µM | > 100 µM |  |  | > 100000 | 45900 | 29.4
9 | NC1(CCCCCCCCCCC(=O)O)CNCCNCCNCCNC1 | > 100 µM |  |  |  |  |  | > 100 µM |  |  |  |  |  |  | 
10 | C#CC(C)(C)Oc1cc(O)c2c(=O)c3ccccc3n(C)c2c1 |  |  |  |  |  |  | > 100 µM |  |  | > 100 | > 100 |  |  | 
11 | COc1ccc(CNC(=O)COc2ccc(/C=N/Nc3nc4ccccc4s3)cc2)cc1 |  | 3350 nM | > 100 µM |  | 5.36 µM |  |  | 3.41 µM | > 100 µM |  |  | 1690 | 1610 | 3.47
12 | CC[n+]1ccc2c(c1)C(=O)c1nccc3c1c-2nc1ccccc13 |  | 1810 nM | 16.2 µM |  | 9.19 µM |  |  | 3.12 µM | 7.24 µM |  |  | 2200 | 832 | 2.34
13 | CCCCn1/c(=N/C(=S)N(C)C)ss/c1=N\C(=S)N(C)C | > 100 µM |  |  |  |  |  | > 100 µM |  |  | > 100 |  |  |  | 
14 | OC(c1cccc(C(F)(F)F)c1)c1cnccc1NC1CCCCCC1 (stereo not drawn) |  | 1530 nM | 4.65 µM |  | 4.82 µM |  |  | 5.47 µM | 3.13 µM |  |  | 1790 | 2130 | 1.66
15 | O=C(O/N=C1/CCC/C1=C\c1ccccc1)c1ccc([N+](=O)[O-])cc1 | > 100 µM |  |  |  |  |  | > 100 µM |  |  |  | > 100 |  |  | 
16 | O=C1CSC(N2CCN(c3cccc(Cl)c3)CC2)=N1 |  | > 100000 nM | > 100 µM |  | > 100 µM |  |  | > 100 µM | > 100 µM |  |  | > 100000 | > 100000 | > 100
17 | C1CN2N3CCCC23C1 (stereo not drawn) | > 100 µM |  |  |  |  |  | > 100 µM |  |  | > 100 |  |  |  | 
18 | CN(C)CCNc1nc2ccccc2c2[nH]c3ccccc3c12 |  | 574 nM | 2.8 µM |  | 92.2 µM |  |  | 8.83 µM | 1.71 µM |  |  | 15800 | 2580 | 0.42
19 | C[Si](C)(C)c1ccc(CC2(Cc3ccc([Si](C)(C)C)cc3)CCNC2)cc1 | 6.87 µM |  |  |  |  |  | 3.93 µM |  |  |  | 5.36 |  |  | 
20 | Clc1cccc(NC=Nc2ccc(-c3nc4ccccc4s3)cc2)c1 |  | 12100 nM | > 50 µM |  | 39 µM |  |  | > 50 µM | 32.7 µM |  |  | 10800 | 23300 | 14.3
21 | CN(C)S(=O)(=O)Nc1ccccn1 |  |  | > 100 µM | > 100 µM |  |  |  | > 100 µM | > 100 µM |  |  |  |  | 
22 | COc1cc2c(c(OC)c1OC)-c1ccc(NCc3ccccc3)c(=O)cc1[C@@H](NC(C)=O)CC2 |  | 406 nM | 43.7 µM |  | 41.5 µM |  |  | 26.1 µM | 0.486 µM |  |  | 589 | 1410 | 0.187
